Experimental data taken from patent US20100197608A1, “USE OF MELANOTROPHIN-POTENTIATING FACTOR AS A THERAPEUTIC AGENT” (priority 2007, published 2010).
Where a SMILES comes first, the peptide text is derived from it.

Tests used:
CEM-SS cells = experiment: Cytotoxicity in CEM-SS cells (MTS); settings: peptide 10 micrograms per ml
HIV-1IIIB = experiment: HIV-1 antiviral assay (CPE reduction) in CEM-SS cells; type: cell-based; settings: peptide 10 micrograms per ml; 6 days post-infection; MTS
MRC-5 cells = settings: human, 6 days
Streptococcus pneumoniae = type: cell-based; settings: 5 micrograms per ml
Pseudomonas aeruginosa = type: cell-based; settings: 5 micrograms per ml
[1] = Cytotoxicity in HepG2-2.2.15 cells (dye uptake); settings: human
in vitro [2] = settings: human, CEM-SS cells
in vitro [3] = settings: human, MRC-5 cells
MRSA = settings: 5 micrograms per ml

## Cc1cn([C@H]2C[C@H](N=[N+]=[N-])[C@@H](CO)O2)c(=O)[nH]c1=O [AZT]
CEM-SS cells
  % Cell viability: 97%
HIV-1IIIB
  % CPE reduction in HIV-1 infected CEM-SS cells: 99%

## Nc1nc(O)c2ncn(COC(CO)CO)c2n1 [Ganciclovir]
MRC-5 cells
  % Cell viability: 100%

## CC(C)(C)NC(=O)[C@@H]1CN(Cc2cccnc2)CCN1C[C@@H](O)C[C@@H](Cc1ccccc1)C(=O)N[C@H]1c2ccccc2C[C@H]1O [Indinavir, indinavir]
HIV-1IIIB
  % CPE reduction in HIV-1 infected CEM-SS cells: 100%

## NCCCC[C@H](NC(=O)[C@@H](N)CCCCN)C(=O)NCC(=O)N[C@@H](CCC(=O)O)C(=O)O [MPF, Lys-Lys-Gly-Glu-OH] (H-KKGE-OH)
Streptococcus pneumoniae
  % inhibition: 0.0%
Pseudomonas aeruginosa
  % inhibition: 0.0%
[1]
  viability at 144 h, 10 micrograms per ml: 100%
In vitro [2]
  viability at 10 micrograms per ml: 100%
In vitro [3]
  viability at 144 h: 96.1%
MRSA
  % inhibition: 0.0%
